In PubChem BioAssay (NCI):
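Results reflect a 48-hour exposure of cells in 96-well plates to compound at five concentrations. Here, GI50 denotes the concentration required for 50% inhibition of growth. TGI marks complete inhibition of growth.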

Legend:
Assay in all cases: NCI-60 cell line screen, 48 h
[1] = test system: 786-0 renal
[2] = test system: ACHN renal
[3] = test system: EKVX NSCLC
[4] = test system: IGROV1 ovarian
[5] = test system: MOLT-4 leukemia
[6] = test system: NCI-H460 lung
[7] = test system: RXF 393 renal
[8] = test system: SR leukemia
[9] = test system: UACC-62 melanoma
[10] = test system: CAKI-1 renal

SMILES	GI50 [1] [µM]	TGI [1] [µM]	GI50 [2] [µM]	TGI [2] [µM]	GI50 [3] [µM]	TGI [3] [µM]	GI50 [4] [µM]	TGI [4] [µM]	GI50 [5] [µM]	TGI [5] [µM]	GI50 [6] [µM]	TGI [6] [µM]	GI50 [7] [µM]	TGI [7] [µM]	GI50 [8] [µM]	TGI [8] [µM]	GI50 [9] [µM]	TGI [9] [µM]	TGI [10] [µM]	GI50 [10] [µM]
CCc1n(Cc2ccc3ccccc3n2)cc[n+]1Cc1ccc2ccccc2n1	31.2	> 100	28	> 100	0.343	41.5	0.214	16.7	0.437	10.1	0.511	11.9	0.982	13	0.0753	12.5	0.186	3.05	–	–
CCCCS(=O)CCC(N)C(=O)O (stereo not given)	–	> 100	–	> 100	–	> 100	–	> 100	–	> 100	–	> 100	–	> 100	–	> 100	–	> 100	> 100	–
CCCc1c(CC)c(=N)c2ccccc2n1C	> 100	> 100	> 100	> 100	–	–	> 100	> 100	> 100	> 100	> 100	> 100	> 100	> 100	> 100	> 100	66.3	> 100	> 100	> 100
COc1ccccc1/C=C1\CCC(CCN(C)C)(C2=CCCC2)C1=O (stereo not given)	–	28.5	–	34.1	–	18.6	–	28.6	–	54.3	–	31.4	–	27.3	–	52.3	–	23.5	57.2	–
COC[C@@H](N=CN1CCc2cc(OC)c(OC)cc2[C@@H]1C)C(C)(C)C	–	> 100	–	> 100	–	> 100	–	> 100	–	> 100	–	> 100	–	> 100	–	> 100	–	> 100	> 100	–
O=C1c2ccc([N+](=O)[O-])cc2-c2c1c1ccccc1c(=O)n2CCCNCCCNCCCn1c2c(c3ccc([N+](=O)[O-])cc3c1=O)C(=O)c1ccccc1-2	1.2	7.21	4.26	15.9	8.76	32.1	2.43	15.8	0.129	2.11	2.34	14.6	5.51	41	0.0306	2.83	1.71	4.85	20.8	3.33
C=C1SC(=Nc2c(C)cc(C)cc2C)N(C(=O)c2sc3ccccc3c2Cl)C12CCCCC2	> 100	> 100	> 100	> 100	38.6	> 100	> 100	> 100	26.3	> 100	> 100	> 100	> 100	> 100	13	> 100	78.5	> 100	> 100	10.7
CC(=O)OCC1OC(n2c3c(c(-c4cccc5ccccc45)c(C#N)c2=S)CCCC3)C(OC(C)=O)C(OC(C)=O)C1OC(C)=O (stereo not given)	–	> 100	–	> 100	–	> 100	–	> 100	–	> 100	–	> 100	–	> 100	–	> 100	–	> 100	–	–
COc1cc2c(c(OC)c1OC)-c1ccc(N)c(=O)cc1[C@@H](NC(C)=O)CC2	0.108	> 100	0.152	> 100	0.0808	> 100	0.0359	–	0.0395	> 100	0.0294	–	0.0303	> 100	< 0.01	> 100	0.0379	> 100	> 47.2	1.42
COc1ccc(Nc2ncc(Br)c(NCCCNC(=O)C3CCC3)n2)cc1	10.1	47.1	13.5	> 100	20.5	83.9	14.6	44.5	5.92	> 100	8.34	31.5	2.3	8.56	4.34	40.1	17.7	36.3	31.6	5.21
CC[N+](C)(CC)CCC(O)(c1ccccc1)c1ccccc1	–	> 100	–	> 100	–	> 100	–	> 100	–	> 100	–	> 100	–	> 100	–	> 100	–	> 100	–	–
CC(C)=CCC/C(C)=C/CC/C(C)=C/Cc1c(O)c2ccccc2oc1=O	–	> 100	–	> 100	–	> 100	–	> 100	–	> 100	–	> 100	–	> 100	–	> 100	–	> 100	–	–
O=C(c1ccccc1)C1CCCCN1C(=O)c1ccccc1 (stereo not given)	–	> 100	–	> 100	–	–	–	> 100	–	> 100	–	> 100	–	> 100	–	> 100	–	> 100	> 100	–
CCOC(=O)C1(Br)C(c2ccccc2)NC(=O)NC1(C)Br (stereo not given)	–	> 100	–	> 100	–	> 100	–	> 100	–	> 73.7	–	> 100	–	> 100	–	> 100	–	> 100	> 62.4	–
COc1ccc(N2Cc3cnc(Nc4ccccc4)nc3N([C@@H]3CC[C@@H](O)C3)C2=O)cc1	3.08	> 25	0.984	> 25	–	–	2.46	> 18.5	2.61	> 17.8	3.41	> 25	0.399	3.18	3.12	> 16.6	2.74	> 25	> 9.74	1.36
COC(=O)C(C(=O)C(=O)Nc1ccc(C(F)(F)F)cc1[N+](=O)[O-])c1csc(-n2nc(-c3ccccc3)cc2-c2ccccc2)n1 (stereo not given)	–	> 100	–	–	–	–	–	> 100	–	> 100	–	> 100	–	> 100	–	> 100	–	> 100	> 100	–
CC1(C)C(=O)C(C)(C)C1=NN	–	> 100	–	> 100	–	–	–	> 100	–	> 100	–	> 100	–	> 100	–	> 100	–	> 100	> 100	–
